# According to patent US20060205673A1, “2-Amino-3-hydroxy-4-tert-leucyl-amino-5-phenyl-pentanoic acid amide derivatives” (priority 2000, published 2006):
# Biological target: T1, purified human placenta 20S proteasome (Homo sapiens, UniProt P28074)
# T1 construct: 1 μl purified human placenta 20S proteasome; tissue Diabetes Forschungsinstitut, Düsseldorf, Germany; host or cells: human placenta
# Experiment: Inhibition of the chymotrypsin-like activity of the 20S proteasome (Suc-LLVY-AMC hydrolysis)
# Assay type: biochemical
# Details: Suc-LLVY-AMC substrate, 60 min preincubation at room temperature, Table 1
# Excerpt: It is based on the hydrolysis of the fluorogenic peptide Suc-LLVY-AMC (Succinyl-leucine-leucine-valine-tyrosine-7-amino-4-methyl-coumarin), which is cleaved exclusively at the Y-AMC bond by the 20S proteasome. Hydrolysis of this peptide is accompanied by an increase in fluorescence intensity [λex (excitation wavelength): 355 nm; λem (emission wavelength): 460 nm] due to release of the internally quenched […] fluorescence that accompanies diffusion apart of the hydrolysis product Suc-LLVY.
# 2 μl of a 1 mM solution of a test compound in DMSO (dimethylsulfoxide, 20 μM final concentration in the well) are preincubated for 60 min at room temperature in black 96-well microtiter plates together with a mixture of 1 μl purified human placenta 20S proteasome (Diabetes Forschungsinstitut, Düsseldorf, Germany; about 100 ng proteasome, depending on the proteasome preparation) and 47 μl buffer-Ca [5 mM CaCl2, 20 mM Tris/HCl (Tris-(hydroxymethyl)-amino-methane hydrochloride) pH 8.0]. 3 μl of a 2.67 mM solution of Suc-LLVY-AMC (Bachem, Switzerland) in DMSO (80 μM final concentration in the well) and 47 μl buffer-Ca are mixed and added. The resulting mixture is incubated for 3-24 h at 37° C. If desired, proteolysis of the substrate can be stopped by addition of 50 μl stop solution (100 mM monochloroacetic acid, 130 mM NaOH, 100 mM acetic acid, pH=4.3). The fluorescence is monitored with a FLUOROSKAN ASCENT™ microtiter plate reader.
# To each measure series two control experiments have to be carried out:
# 1.) 0% value: 2 μl DMSO are used in the above described assay instead of 2 μl of a 1 mM solution of a test compound in DMSO and 48 μl buffer-Ca instead of a mixture of 47 μl buffer-Ca and 1 μl purified proteasome.
# 2.) 100% value: in the above described assay 2 μl DMSO are used instead of 2 μl of a 1 mM solution of the test compound in DMSO.
# The IC50 value is defined as that concentration of a compound at which the remaining activity is 50%.
row,Compound,IC50
1,"COc1ccc(CNC(=O)[C@@H](NC(=O)[C@H](NCc2cc(OC)c(OC)cc2OC)[C@H](O)[C@H](Cc2ccccc2)NC(=O)[C@@H](NC(=O)Cc2cccc3ccccc23)C(C)(C)C)C(C)C)c(O)c1 [Example 14, (2R,3R,4S)-4-[(S)-3,3-Dimethyl-2-(2-naphthalen-1-yl-acetylamino)-butyrylamino]-3-hydroxy-5-phenyl-2-(2,4,5-trimethoxy-benzylamino)-pentanoic acid [(S)-1-(2-hydroxy-4-methoxy-benzylcarbamoyl)-2-methyl-propyl]-amide]",29 nM
2,"COc1ccc(CNC(=O)[C@@H](NC(=O)[C@H](NCc2cccc3ccccc23)[C@H](O)[C@H](Cc2ccccc2)NC(=O)[C@@H](NC(=O)Cc2cccc3ccccc23)C(C)(C)C)C(C)C)c(O)c1 [Example 15, (2R,3R,4S)-4-[(S)-3,3-Dimethyl-2-(2-naphthalen-1-yl-acetylamino)-butyrylamino]-3-hydroxy-2-[(naphthalen-1-ylmethyl)-amino]-5-phenyl-pentanoic acid [(S)-1-(2-hydroxy-4-methoxy-benzylcarbamoyl)-2-methyl-propyl]-amide]",150 nM
3,"COc1ccc(CNC(=O)[C@@H](NC(=O)[C@H](NCc2ccc(N(C)C)cc2)[C@H](O)[C@H](Cc2ccccc2)NC(=O)[C@@H](NC(=O)Cc2cccc3ccccc23)C(C)(C)C)C(C)C)c(O)c1 [Example 16, (2R,3R,4S)-2-(4-Dimethylamino-benzylamino)-4-[(S)-3,3-dimethyl-2-(2-naphthalen-1-yl-acetylamino)-butyrylamino]-3-hydroxy-5-phenyl-pentanoic acid [(S)-1-(2-hydroxy-4-methoxy-benzylcarbamoyl)-2-methyl-propyl]-amide]",160 nM
